According to patent publication US11779567B2, “Method for optimizing 5-hydroxytryptamine function in the brain for therapeutic purposes” (Evecxia Therapeutics, Inc., priority 2021, dated 2023):

Test: Plasma escitalopram levels in Phase 1 study
Type: in vivo, human
Settings: for Escitalopram plasma levels, Average Day 21-23 / concentration at 21 day / concentration at 22 day / concentration at 23 day: 20 mg/day oral; for Escitalopram plasma levels, Average Day 21-23 / concentration at 7 day / concentration at 21 day / concentration at 22 day / concentration at 23 day: mean ± SEM; for concentration at 7 day / concentration at 21 day / concentration at 22 day / concentration at 23 day: both sexes, human, plasma; for concentration at 7 day: 10 mg/day, after 10 mg/day oral
Description: Study Design. A Phase 1, randomized, double-blind, placebo-controlled, single ascending dose study was performed to evaluate the safety, tolerability and pharmacokinetics (PK) of 5-HTP solution for IV infusion when administered to healthy adults taking a selective serotonin reuptake inhibitor (SSRI), escitalopram, for 3 weeks. Study duration was 37±3 days. The total individual subject participation time was no more than 66 days including screening, dosing, and follow-up phases. The IV infusion duration was 24 h, dosing with 5-HTP solution for IV infusion (see Example 3, above) or placebo (0.9% saline).
Pre-treatment with escitalopram. All subjects received pretreatment with escitalopram for 3 weeks prior to and during the 24 h IV infusion. A supply of escitalopram was provided for self-administration at a dose of 10 mg/day for 7 days. On Day 7 subjects were evaluated for general health and tolerability of escitalopram. Escitalopram compliance confirmation was evaluated by taking a blood draw for escitalopram plasma level measurements and by monitoring pill count using a diary. On Day 7 the subjects received a supply of 20 mg escitalopram tablets and self-administered 20 mg/day until Day 20 when they were admitted to the impatient clinic. Escitalopram was co-administered orally on Day 21-23 by clinical staff. Escitalopram treatment was tapered from 20 mg/day to 10 mg/day after the end of the infusion and continued for 8 days.
Bioanalysis. Plasma samples for 5-HTP analysis were collected and stored at −80° C. Plasma samples for escitalopram analysis were collected and stored at −80° C. Plasma 5-HTP levels and plasma escitalopram levels were measured using standard liquid chromatography with tandem mass spectrometry (LC-MS-MS) methods. For 5-HTP analysis, plasma samples were collected at T=0, 1, 2, 3, 4, 5, 6, 8, 10, 12, 14, 22, 24, 26, 28, 30, 32, 36, and 48 hr. For escitalopram analysis, plasma samples were collected on Day 7, Day 21 (pre-infusion), Day 22 (end of infusion), and Day 23 (24 hr after end of infusion). Plasma escitalopram levels were averaged across days 21-23, during the time-period when subjects were admitted to the clinic and received 5-HTP solution for IV infusion or placebo.
PK analysis of plasma escitalopram. Plasma escitalopram levels across Days 21-23 were averaged for each subject, and statistical analysis by one-way ANOVA for cohort differences executed using GraphPad Prism version 9.4.1.

[1] = oral, Cohort 1 (5-HTP 1 mg/kg, Constant)
[2] = oral, Cohort 2 (5-HTP 3 mg/kg, Constant)
[3] = oral, Cohort 3 (5-HTP 3 mg/kg, Ramped)
[4] = oral, 20 mg/day, Cohort 4 (5-HTP 2 mg/kg, Ramped)
[5] = oral, 20 mg/day, Cohort 5 (5-HTP 1 mg/kg, Ramped)
[6] = po, 20 mg/day, Cohorts 1-5 pooled, placebo infusion instead of 5-HTP, N=10

Q: With CN(C)CCC[C@@]1(c2ccc(F)cc2)OCc2cc(C#N)ccc21 [Escitalopram, escitalopram] as the molecule, how does the “Escitalopram plasma levels, Average Day 21-23” value (from here on “Escitalopram plasma levels”) (Cohort 1 (5-HTP 1 mg/kg, Constant)) read?
A: 39.7 ± 8.9 ng/mL

Q: What about the “Escitalopram plasma levels” value (Cohort 2 (5-HTP 3 mg/kg, Constant)) of the same molecule?
A: 25.6 ± 6.5 ng/mL

Q: What about the “Escitalopram plasma levels” value (Cohort 3 (5-HTP 3 mg/kg, Ramped)) of the same molecule?
A: 39.1 ± 4.8 ng/mL

Q: What about the “Escitalopram plasma levels” value (Cohort 4 (5-HTP 2 mg/kg, Ramped)) of the same molecule?
A: 29.2 ± 6.2 ng/mL

Q: What about the “Escitalopram plasma levels” value (Cohort 5 (5-HTP 1 mg/kg, Ramped)) of the same molecule?
A: 24.4 ± 5.0 ng/mL

Q: What about the “Escitalopram plasma levels” value (Cohorts 1-5 pooled, placebo infusion instead of 5-HTP, N=10) of the same molecule?
A: 44.0 ± 8.2 ng/mL

Q: What about the “average plasma escitalopram levels, range across treatment groups” value (Days 21-23, 20 mg/day oral) of the same molecule?
A: 24 to 44 ng/mL

Q: And the concentration at 7 day [1]?
A: 19.3 ± 3.1 ng/mL

Q: And the concentration at 7 day [2]?
A: 10.1 ± 1.5 ng/mL

Q: And the concentration at 7 day [3]?
A: 17 ± 2.3 ng/mL

Q: What about the concentration at 7 day (oral, Cohort 4 (5-HTP 2 mg/kg, Ramped)) of the same molecule?
A: 14.2 ± 2.5 ng/mL

Q: And the concentration at 7 day (oral, Cohort 5 (5-HTP 1 mg/kg, Ramped))?
A: 11.4 ± 2.3 ng/mL

Q: What about the concentration at 21 day (oral, 20 mg/day, Cohort 1 (5-HTP 1 mg/kg, Constant)) of the same molecule?
A: 39.8 ± 12.3 ng/mL

Q: And the concentration at 21 day (oral, 20 mg/day, Cohort 2 (5-HTP 3 mg/kg, Constant))?
A: 22.5 ± 10.2 ng/mL

Q: What about the concentration at 21 day (oral, 20 mg/day, Cohort 3 (5-HTP 3 mg/kg, Ramped)) of the same molecule?
A: 43.5 ± 4.5 ng/mL

Q: What about the concentration at 21 day [4] of the same molecule?
A: 28.5 ± 5.8 ng/mL

Q: And the concentration at 22 day [4]?
A: 28.8 ± 6.2 ng/mL

Q: And the concentration at 23 day [4]?
A: 30.3 ± 7 ng/mL

Q: What about the concentration at 21 day [5] of the same molecule?
A: 21.7 ± 3.4 ng/mL

Q: And the concentration at 22 day [5]?
A: 22.2 ± 4.7 ng/mL

Q: And the concentration at 23 day [5]?
A: 29.2 ± 7.5 ng/mL

Q: And the concentration at 22 day [1]?
A: 37.9 ± 7.3 ng/mL

Q: What about the concentration at 23 day [1] of the same molecule?
A: 41.6 ± 7.6 ng/mL

Q: What about the concentration at 22 day [2] of the same molecule?
A: 24.3 ± 5.7 ng/mL

Q: What about the concentration at 23 day [2] of the same molecule?
A: 30 ± 3.7 ng/mL

Q: What about the concentration at 22 day [3] of the same molecule?
A: 37.3 ± 5.9 ng/mL

Q: What about the concentration at 23 day [3] of the same molecule?
A: 36.6 ± 4.1 ng/mL

Q: What about the concentration at 7 day (po, Cohorts 1-5 pooled, placebo infusion instead of 5-HTP, N=10) of the same molecule?
A: 18.3 ± 3.1 ng/mL

Q: What about the concentration at 21 day [6] of the same molecule?
A: 43.3 ± 8.4 ng/mL

Q: What about the concentration at 22 day [6] of the same molecule?
A: 45.2 ± 9.1 ng/mL

Q: And the concentration at 23 day [6]?
A: 43.5 ± 7.5 ng/mL
